Columns and labels:
[1] = test system: myocilin mRNA; experiment: Myocilin mRNA expression in monkey TM cells (qRT-PCR); format: cell-based, rhesus monkeys (Macaca mulatta)
Protocol: For each study, up to nine TM cell strains, each derived from an individual monkey, were tested separately. Cells were thawed and seeded into 12- or 48-well clusters (Falcon, BD Biosciences; 150,000 and 30,000 cells/well, respectively) in proliferation medium. When cells were 75% to 90% confluent proliferation medium was replaced by a 5:4 mixture of HESFM and Dulbecco's MEM, respectively, supplemented with 10% FBS, with added taurine, ascorbic acid phosphate, glutathione, and antibiotic as for proliferation medium (above), and with 2.72 g/L glucose and 1.72 g/L fructose. At confluence, the medium was changed to Dulbecco's MEM, containing 10% FBS^40, ascorbic acid phosphate, antibiotic, 2.72 g/L glucose and 1.72 g/L fructose. Cells were maintained as stable, confluent monolayers in this latter medium for 4 to 7 days before experimental treatments commenced.
After quantification of purified total RNA (Quant-iT RNA Assay kit, Molecular Probes, Eugene, Oreg.), equivalent amounts of this RNA were apportioned to generate first-strand cDNAs for each treatment sample, using random primers, (Affinity Script, Stratagene, La Jolla, Calif.). Oligonucleotide myocilin primers, designed based on the cynomolgus MYOC gene, and fluorescent Taqman probe (Applied Biosystems, Foster City, Calif.) were used for PCR amplification. Equal amounts of total RNA-equivalent mass (approximate range […]) reactant cDNA were added to the PCR Master Mix (Stratagene) and myocilin primers/Taqman probe. Amplification was performed in a thermocycler (Mx3005P, Stratagene), with an initial denaturation step at 95° C. for 10 min, followed by 40 cycles of 95° C. for 15 sec and 60° C. for 1 min for extension. Every run included standard controls (i.e., either without reverse transcriptase or lacking template). Relative quantities of myocilin mRNA abundance were determined using differences in threshold cycles (“Ct”) between vehicle control and drug treatments. Each sample was analyzed in triplicate wells, and the corresponding values averaged for further quantitative analysis. Myocilin mRNA abundance, expressed in proportion to vehicle control-treated samples, was calculated using the Mx3005P software.
Data underwent Box-Cox transformations for one- or two-way analysis of variance (ANOVA), followed by the Tukey-Kramer test, using JMP software (SAS, Cary, N.C.). The specific transformations used for analyses are mentioned in the figure legends. For each set of triplicate samples from the individual monkey TM cell strains tested, Western blot densitometry values for myocilin protein detected in CM (as geometric means), and relative abundance of myocilin mRNA (as geometric means), were plotted as a function of drug concentrations. P-values less than 0.05 were considered statistically significant. […]

[2] = test system: intraocular pressure (IOP) in New Zealand White rabbits; experiment: Intraocular pressure in New Zealand White rabbits, topical dosing four times daily; format: in vivo; conditions: for Intraocular Pressure, MEAN: A.M. readings
Protocol: On Days 1-31, animals received daily topical doses of the appropriate test article into the right eye. Animals were dosed four times per day, with doses administered 2 hours apart. Doses were administered using a calibrated 50-μL pipette. The eyelids were held close for 10 seconds immediately following dosing. The time of each dose administration was recorded.
Intraocular pressure (“IOP”) was determined for both eyes of each animal on Days 3, 5, 10, 12, 16, 18, 22, 24, 26, 30, and 32. LOP was evaluated with a Medtronic Solan, Model 30 classic pneumatonometer. Proparacaine hydrochloride 0.5% (1 drop) was delivered to each eye prior to IOP measurement. IOP was measured on Monday, Wednesday, and Friday of each week. A two-point diurnal curve was established: IOP was recorded at 8 a.m. and 12 p.m. on Day 3, and at 8 a.m. and 2 p.m. on later days, with a ±1 hour range for each of these times. The time of the measurements was recorded.
Descriptive statistics were prepared for IOP data of each treatment group (left and right eyes separately) at each measurement interval. The statistics included the number of observations (“N”), mean, standard deviation (“STD”), and standard error (“SEM”). Statistical analyses were conducted on IOP results using Statistical Analysis Systems (SAS Institute, Inc., Cary, N.C., V8.0). Parameters were evaluated using analysis of variance/GLM Procedure followed by Tukey's Standardized Range Test (Tukey, 1985) for post hoc comparisons of group means. The level of significance was set at a probability of p<0.05 for all statistical procedures. Group IOP means were compared at each interval, with left and right eyes compared separately.
IOP data for the following six animals were excluded from group statistics: Group A, Nos. 3081, 3037, 3068, and 3011; Group C, No. 3034; and Group E, No. 3084.

SMILES: Cc1ccc2c(NCC(O)(CC(C)(C)c3cc(F)cc4c3OCC4)C(F)(F)F)cccc2n1 (centres unmarked) [BOL-303242-X]
- Maximal efficacy for myocilin mRNA expression, relative to DEX ([1]; 300 nM, monkey TM cells): approximately 67%
- EC50 ([1]; Macaca mulatta, cultured monkey TM cells, weighted average, two dose-response studies each using two TM cell strains, read-out: EC50 ± SE, expression of myocilin mRNA): 20.8 ± 2.74 nM
- Myocilin mRNA abundance compared with DEX ([1]; all doses, monkey TM cells): significantly lower mRNA abundance values
- Intraocular Pressure, MEAN ([2]; 1 mg/g BOL-303242-X (Group D), untreated left eyes, Day 3): 23.5 mmHg
- Intraocular Pressure, MEAN ([2]; 1 mg/g BOL-303242-X (Group D), untreated left eyes, Day 5): 24.4 mmHg
- Intraocular Pressure, MEAN ([2]; 1 mg/g BOL-303242-X (Group D), untreated left eyes, Day 10): 24.5 mmHg
- Intraocular Pressure, MEAN ([2]; 1 mg/g BOL-303242-X (Group D), untreated left eyes, Day 12): 22.2 mmHg
- Intraocular Pressure, MEAN ([2]; 1 mg/g BOL-303242-X (Group D), untreated left eyes, Day 16): 21.6 mmHg
- Intraocular Pressure, MEAN ([2]; 1 mg/g BOL-303242-X (Group D), untreated left eyes, Day 18): 23.3 mmHg
- Intraocular Pressure, MEAN ([2]; 1 mg/g BOL-303242-X (Group D), untreated left eyes, Day 22): 22.4 mmHg
- Intraocular Pressure, MEAN ([2]; 1 mg/g BOL-303242-X (Group D), untreated left eyes, Day 24): 22.4 mmHg
- Intraocular Pressure, MEAN ([2]; 1 mg/g BOL-303242-X (Group D), untreated left eyes, Day 26): 22.9 mmHg
- Intraocular Pressure, MEAN ([2]; 1 mg/g BOL-303242-X (Group D), untreated left eyes, Day 30): 23.4 mmHg
- Intraocular Pressure, MEAN ([2]; 1 mg/g BOL-303242-X (Group D), untreated left eyes, Day 32): 24.1 mmHg
- Intraocular Pressure, MEAN ([2]; 1 mg/g BOL-303242-X (Group D), untreated left eyes, Pre-Study): 23.9 mmHg
- Intraocular Pressure, MEAN ([2]; 5 mg/g BOL-303242-X (Group C), untreated left eyes, Day 3): 23.8 mmHg
- Intraocular Pressure, MEAN ([2]; 5 mg/g BOL-303242-X (Group C), untreated left eyes, Day 5): 24.4 mmHg
- Intraocular Pressure, MEAN ([2]; 5 mg/g BOL-303242-X (Group C), untreated left eyes, Day 10): 24.6 mmHg
- Intraocular Pressure, MEAN ([2]; 5 mg/g BOL-303242-X (Group C), untreated left eyes, Day 12): 23.8 mmHg
- Intraocular Pressure, MEAN ([2]; 5 mg/g BOL-303242-X (Group C), untreated left eyes, Day 16): 23.4 mmHg
- Intraocular Pressure, MEAN ([2]; 5 mg/g BOL-303242-X (Group C), untreated left eyes, Day 18): 21.9 mmHg
- Intraocular Pressure, MEAN ([2]; 5 mg/g BOL-303242-X (Group C), untreated left eyes, Day 22): 21.6 mmHg
- Intraocular Pressure, MEAN ([2]; 5 mg/g BOL-303242-X (Group C), untreated left eyes, Day 24): 22.1 mmHg
- Intraocular Pressure, MEAN ([2]; 5 mg/g BOL-303242-X (Group C), untreated left eyes, Day 26): 21.7 mmHg
- Intraocular Pressure, MEAN ([2]; 5 mg/g BOL-303242-X (Group C), untreated left eyes, Day 30): 22.6 mmHg
- Intraocular Pressure, MEAN ([2]; 5 mg/g BOL-303242-X (Group C), untreated left eyes, Day 32): 23.1 mmHg
- Intraocular Pressure, MEAN ([2]; 5 mg/g BOL-303242-X (Group C), untreated left eyes, Pre-Study): 24.2 mmHg
- Intraocular Pressure, MEAN ([2]; 10 mg/g BOL-303242-X (Group B), untreated left eyes, Day 3): 23.3 mmHg
- Intraocular Pressure, MEAN ([2]; 10 mg/g BOL-303242-X (Group B), untreated left eyes, Day 5): 23.4 mmHg
- Intraocular Pressure, MEAN ([2]; 10 mg/g BOL-303242-X (Group B), untreated left eyes, Day 10): 24.0 mmHg
- Intraocular Pressure, MEAN ([2]; 10 mg/g BOL-303242-X (Group B), untreated left eyes, Day 12): 23.8 mmHg
- Intraocular Pressure, MEAN ([2]; 10 mg/g BOL-303242-X (Group B), untreated left eyes, Day 16): 22.9 mmHg
- Intraocular Pressure, MEAN ([2]; 10 mg/g BOL-303242-X (Group B), untreated left eyes, Day 18): 21.2 mmHg
- Intraocular Pressure, MEAN ([2]; 10 mg/g BOL-303242-X (Group B), untreated left eyes, Day 22): 21.8 mmHg
- Intraocular Pressure, MEAN ([2]; 10 mg/g BOL-303242-X (Group B), untreated left eyes, Day 24): 20.2 mmHg
- Intraocular Pressure, MEAN ([2]; 10 mg/g BOL-303242-X (Group B), untreated left eyes, Day 26): 21.7 mmHg
- Intraocular Pressure, MEAN ([2]; 10 mg/g BOL-303242-X (Group B), untreated left eyes, Day 30): 22.7 mmHg
- Intraocular Pressure, MEAN ([2]; 10 mg/g BOL-303242-X (Group B), untreated left eyes, Day 32): 22.9 mmHg
- Intraocular Pressure, MEAN ([2]; 10 mg/g BOL-303242-X (Group B), untreated left eyes, Pre-Study): 23.8 mmHg
- Differences in mean IOP versus the BSS group ([2]; BOL-303242-X 1, 5, 10 mg/g suspensions): No statistically significant (p<0.05) differences
- IOP compared to daily dosing with dexamethasone ([2]; BOL-303242-X suspensions 0.05, 0.25 or 0.5 mg/dose, daily dosing up to 31 days): did not increase IOP
- Mean IOP after treatment began ([2]; rabbits, right eye four times daily up to 31 days, dexamethasone 0.1%, BOL-303242-X 1, 5, 10 mg/g, left and right eyes): This increase was not seen
- Intraocular Pressure, MEAN ([2]; treated right eyes, Day 3, 1 mg/g (Group D)): 23.0 mmHg
- Intraocular Pressure, MEAN ([2]; treated right eyes, Day 3, 5 mg/g (Group C)): 23.7 mmHg
- Intraocular Pressure, MEAN ([2]; treated right eyes, Day 3, 10 mg/g (Group B)): 22.7 mmHg
- Intraocular Pressure, MEAN ([2]; treated right eyes, Day 5, 1 mg/g (Group D)): 24.7 mmHg
- Intraocular Pressure, MEAN ([2]; treated right eyes, Day 5, 5 mg/g (Group C)): 24.7 mmHg
- Intraocular Pressure, MEAN ([2]; treated right eyes, Day 5, 10 mg/g (Group B)): 23.8 mmHg
- Intraocular Pressure, MEAN ([2]; treated right eyes, Day 10, 1 mg/g (Group D)): 24.8 mmHg
- Intraocular Pressure, MEAN ([2]; treated right eyes, Day 10, 5 mg/g (Group C)): 25.2 mmHg
- Intraocular Pressure, MEAN ([2]; treated right eyes, Day 10, 10 mg/g (Group B)): 24.5 mmHg
- Intraocular Pressure, MEAN ([2]; treated right eyes, Day 12, 1 mg/g (Group D)): 23.4 mmHg
- Intraocular Pressure, MEAN ([2]; treated right eyes, Day 12, 5 mg/g (Group C)): 25.0 mmHg
